# Laboratory results published in US10188695B2, “Calcineurin inhibitors for use in the treatment of lesional vestibular disorders” (Institut National De La Santé Et De La Recherche Médicale, priority 2012, dated 2019).
# Tested on: excitotoxically induced lasting vestibular deficits
# Test: Kainic acid excitotoxic vestibular lesion in rats, spontaneous nystagmus by infra-red videonystagmography (FK-506 treatment)
# Assay type: in vivo, rat
# Conditions: t=24 h
# Protocol: Two inverted 3 mm bolts partially encased in dental acrylic were surgically fixed to the skull of female Long-Evans rats under deep ketamine-xylazine anesthesia using self-tapping surgical screws and cyanoacrylate. Each animal was allowed to recover for 1 week before experiencing 4 training sessions with head fixation (5-10 min) of increasing duration in the week preceding the experiments.
# Under visual control using a surgical microscope, each rat received transtympanic injections of 50 μL 15 mM kainic acid in physiological serum with 10 mg/mL benzyl alcohol at t=0 h and 25 μL 15 mM kanic acid in physiological serum with 10 mg/mL benzyl alcohol at t=2 h.
# At t=1 h the behaviorally associated vestibular deficits of each transtympanically injected animal was determined using 5 classical criteria each scored on a 0-4 scale: Circling, head-bobbing, degree of head-tilt, tail-hanging reflex deficit and air-righting reflex deficit. […]
# Spontaneous eye-movements were recorded at t=1 h and t=24 h in the dark using an ISCAN ETL-200 infra-red videooculography system under head-fixed conditions. […]
# The spontaneous nystagmus frequency in videooculography traces recorded at t=1 h (pre-treatment) and t=24 h (chronic deficit) was determined using custom routines written in MatLab R2011b (The Mathworks, Natick, Mass.). […]
structure (smiles),measurement,setting,value
"C=CC[C@@H]1/C=C(\C)C[C@H](C)C[C@H](OC)[C@H]2O[C@@](O)(C(=O)C(=O)N3CCCC[C@H]3C(=O)O[C@H](/C(C)=C/[C@@H]3CC[C@@H](O)[C@H](OC)C3)[C@H](C)[C@@H](O)CC1=O)[C@H](C)C[C@@H]2OC [FK-506, tacrolimus]",normalized chronic spontaneous nystagmus frequency,"normalized to group mean at t=1 h, single i.p. injection 2.5 mg/kg at t=1 h, Long-Evans rats, in the dark",26.9±11.8%
same,reduction of lasting vestibular deficits (spontaneous nystagmus in the dark) vs sham,"single i.p. injection 2.5 mg/kg, p=0.014",43%
